Measured values as given in ChEMBL document CHEMBL3853322, “Thrombospondin-1 Mimetic Agonist Peptides Induce Selective Death in Tumor Cells: Design, Synthesis, and Structure-Activity Relationship Studies” (J Med Chem, 2016).
Square brackets hold non-standard residues; d marks the D form. Peptide text beside a SMILES is read from it.

Tests used:
[1] = Induction of programmed cell death in human MEC1 cells at 200 uM after 2 hrs by Annexin-V/propidium iodide staining based FACS analysis; format: functional
[2] = target: Leukocyte surface antigen CD47 (Homo sapiens, UniProt Q08722); assay: Binding affinity to CD47 receptor in human biotinylated MEC1 cell membranes by biolayer interferometry
[3] = Metabolic stability in human serum at 10 mg/ml at 37 degC after 2 hrs by HPLC analysis; format: ADME
[4] = Aqueous solubility of compound in 50 mM sodium succinate buffer at 2 mM at pH 5 by 1D 1H NMR spectroscopic analysis; format: physicochemical; conditions: buffer, pH 5, 2000 µM

Sequence of Leukocyte surface antigen CD47 (Q08722 whole entry): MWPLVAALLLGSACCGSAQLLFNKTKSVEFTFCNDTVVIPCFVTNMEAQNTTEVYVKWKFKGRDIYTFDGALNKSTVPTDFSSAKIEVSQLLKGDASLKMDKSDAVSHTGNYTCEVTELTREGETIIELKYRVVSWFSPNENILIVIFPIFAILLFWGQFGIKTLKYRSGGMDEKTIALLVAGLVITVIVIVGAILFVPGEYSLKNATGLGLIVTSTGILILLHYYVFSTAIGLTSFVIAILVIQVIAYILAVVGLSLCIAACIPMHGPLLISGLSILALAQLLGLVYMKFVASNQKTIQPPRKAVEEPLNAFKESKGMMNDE

| Compound | Activity [1] | further results |
| --- | --- | --- |
| CSCC[C@H](NC(=O)[C@H](C)NC(=O)[C@@H](NC(=O)[C@H](Cc1ccc(O)cc1)NC(=O)[C@H](Cc1ccccc1)NC(=O)[C@H](CCCNC(=N)N)NC(=O)[C@H](N)CCCCN)C(C)C)C(=O)N[C@@H](Cc1c[nH]c2ccccc12)C(=O)N[C@@H](CCCCN)C(=O)N[C@H](CCCCN)C(=O)O (H-[dK]RFYVAMWK[dK]-OH) | 30% | – |
| CSCC[C@H](NC(=O)[C@@H](NC(=O)[C@@H](NC(=O)[C@H](C)NC(=O)[C@H](Cc1ccccc1)NC(=O)[C@H](CCCNC(=N)N)NC(=O)[C@H](N)CCCCN)C(C)C)C(C)C)C(=O)N[C@@H](Cc1c[nH]c2ccccc12)C(=O)N[C@@H](CCCCN)C(=O)N[C@H](CCCCN)C(=O)O | 0% | – |
| H-KRFYGGMWKK-OH | 2% | – |
| CCCCC(NC(=O)[C@@H](NC(=O)[C@@H](NC(=O)[C@H](Cc1ccc(O)cc1)NC(=O)[C@H](Cc1ccccc1)NC(=O)[C@H](CCCNC(=N)N)NC(=O)[C@H](N)CCCCN)C(C)C)C(C)C)C(=O)N[C@@H](Cc1c[nH]c2ccccc12)C(=O)N[C@@H](CCCCN)C(=O)N[C@H](CCCCN)C(=O)O (stereo partly specified) | 47% | Kd [2]: 18 µM |
| CSCC[C@H](NC(=O)[C@@H](NC(=O)[C@@H](NC(=O)[C@H](Cc1ccc(O)cc1)NC(=O)[C@H](Cc1ccccc1)NC(=O)[C@H](CCCNC(=N)N)NC(=O)[C@H](N)CCCCN)C(C)C)C(C)C)C(=O)N[C@@H](C)C(=O)N[C@@H](CCCCN)C(=O)N[C@H](CCCCN)C(=O)O (H-[dK]RFYVVMAK[dK]-OH) | 35% | – |
| CSCC[C@H](NC(=O)[C@@H](NC(=O)[C@@H](NC(=O)[C@H](Cc1ccc(O)cc1)NC(=O)[C@H](C)NC(=O)[C@H](CCCNC(=N)N)NC(=O)[C@H](N)CCCCN)C(C)C)C(C)C)C(=O)N[C@@H](Cc1c[nH]c2ccccc12)C(=O)N[C@@H](CCCCN)C(=O)N[C@H](CCCCN)C(=O)O (H-[dK]RAYVVMWK[dK]-OH) | 6% | – |
| CSCC[C@H](NC(=O)[C@@H](NC(=O)[C@H](C)NC(=O)[C@H](Cc1ccc(O)cc1)NC(=O)[C@H](Cc1ccccc1)NC(=O)[C@H](CCCNC(=N)N)NC(=O)[C@H](N)CCCCN)C(C)C)C(=O)N[C@@H](Cc1c[nH]c2ccccc12)C(=O)N[C@@H](CCCCN)C(=O)N[C@H](CCCCN)C(=O)O (H-[dK]RFYAVMWK[dK]-OH) | 12% | – |
| CSCC[C@H](NC(=O)[C@@H](NC(=O)[C@@H](NC(=O)[C@H](Cc1ccc(O)cc1)NC(=O)[C@H](Cc1ccccc1)NC(=O)[C@H](CCCNC(=N)N)NC(C)=O)C(C)C)C(C)C)C(=O)N[C@@H](Cc1c[nH]c2ccccc12)C(=O)N[C@@H](CCCCN)C(N)=O | 27% | Stability [3]: Stable; solubility [4]: Insoluble |
